Data as given in patent US9328138B2 (priority 2011, dated 2016).

Legend:
[1] = target: T1, HCV genotype 1b (BK) NS3 modified enzyme with a R155K mutation (Hepatitis C virus genotype 1b, UniProt P26663, R1181K); assay: HCV NS3 protease time-resolved fluorescence (TRF) assay, genotype 1b R155K; type: biochemical; settings: Ki 1b R155K
T1 construct: HCV genotype 1b (BK) NS3 modified enzyme
Procedure, shortened: (§1)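 NS3/NS4A protease was pre-incubated 10 min with inhibitor in 50 mM HEPES pH 7.5, 150 mM NaCl, 15% glycerol, 0.15% Triton X-100, 10 mM DTT, 0.1% PEG 8000. TRF peptide substrate (25 nM final) was hydrolysed for 6 h at room temperature. IC50 came from four-parameter fits.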

[2] = target: HCV NS3 protease genotype 3a (3A-1) (Hepatitis C virus genotype 3a, UniProt Q81258); assay: HCV NS3 protease time-resolved fluorescence (TRF) assay, genotype 3a; type: biochemical; settings: Ki 3a
Procedure, shortened: as §1

[3] = genotype 1b (BK) NS3 R155K, single value

C=C[C@@H]1C[C@]1(NC(=O)[C@@H]1C[C@@H]2CN1C(=O)[C@H](C1CCCC1)NC(=O)O[C@@H]1CCC[C@H]1CC/C=C/Cc1c(nc3ccccc3c1OCCCN1CCCC1=O)O2)C(=O)NS(=O)(=O)C1CC1 [Example 78, (3aR,7S,10S,12R,21E,24aS)-7-cyclo pentyl-N-{(1R,2S)-1-[(cyclopropylsulfonyl)carbamoyl]-2-ethenylcyclopropyl}-5,8-dioxo-19-[3-(2-oxopyrrolidin-1-yl)propoxy]-1,2,3,3a,5,6,7,8,11,12,20,23,24,24a-tetradecahydro-10H-9,12-methano-cyclopenta[18,19][1,10,3,6]dioxa diazacyclonona decino[11,12-b] quinoline-10-carboxamide]
Ki [1, 3]: 0.08 nM | Ki [2]: 0.54 nM

C=C[C@@H]1C[C@]1(NC(=O)[C@@H]1C[C@@H]2CN1C(=O)[C@H](C1CCCC1)NC(=O)O[C@@H]1CCC[C@H]1CC/C=C/Cc1c(nc3ccccc3c1OCCCOP(=O)(O)O)O2)C(=O)NS(=O)(=O)C1CC1 [Example 95, 3-{[(3aR,7S,10S,12R,21E,24aS)-7-cyclopentyl-10-({(1R,2S)-1-[(cyclopropylsulfonyl)carbamoyl]-2-ethenylcyclopropyl}carbamoyl)-5,8-dioxo-1,2,3,3a,5,6,7,8,11,12,20,23,24,24a-tetradecahydro-10H-9,12-methanocyclopenta[18,19][1,10,3,6]dioxadiazacyclononadecino[11,12-b]quinolin-19-yl]oxy}propyl dihydrogen phosphate]
Ki [1, 3]: 0.18 nM | Ki [2]: 1 nM

C=C[C@@H]1C[C@]1(NC(=O)[C@@H]1C[C@@H]2CN1C(=O)[C@H](C(C)(C)C)NC(=O)O[C@@H]1C[C@H]1CCCCCc1c(nc3ccccc3c1OCCCNCCN1CCCC1=O)O2)C(=O)NS(=O)(=O)C1(C)CC1 [Example 197, (1aR,5S,8S,10R,22aR)-5-tert-butyl-N-[(1R,2S)-2-ethenyl-1-{[(1-methylcyclopropyl)sulfonyl]carbamoyl}cyclopropyl]-3,6-dioxo-17-(3-{[2-(2-oxopyrrolidin-1-yl)ethyl]amino}propoxy)-1,1a,3,4,5,7,9,10, 18,19,20,21,22,22a-tetra decahydro-8H-7,10-methanocyclopropa[18,19][1,10,3,6] dioxdiazacyclononadecino[11,12-b] quinoline-8-carboxamide]
Ki [1, 3]: 0.027 nM | Ki [2]: 0.31 nM

C=C[C@@H]1C[C@]1(NC(=O)[C@@H]1C[C@@H]2CN1C(=O)[C@H](C(C)(C)C)NC(=O)O[C@@H]1C[C@H]1CCCCCc1c(nc3ccccc3c1OC1CC3CCC(C1)N3CC)O2)C(=O)NS(=O)(=O)C1(C)CC1 (single isomer, unassigned) [Example 277]
Ki ([1]; first of two values printed in the cell (not explained)): 0.008 nM | Ki ([1]; second of two values printed in the cell (not explained)): 0.013 nM | Ki [2]: 0.078 nM

C=C[C@@H]1C[C@]1(NC(=O)[C@@H]1C[C@@H]2CN1C(=O)[C@H](C1CCCC1)NC(=O)O[C@@H]1CCC[C@H]1CC/C=C/Cc1c(nc3ccccc3c1OC(=O)C(C)C)O2)C(=O)NS(=O)(=O)C1CC1 [Example 40, (3aR,7S,10S,12R,21E,24aS)-7-cyclopentyl-10-({(1R,2S)-1-[(cyclopropylsulfonyl)carbamoyl]-2-ethenylcyclopropyl}carbamoyl)-5,8-dioxo-1,2,3,3a,5,6,7,8,11,12,20,23,24,24a-tetradecahydro-10H-9,12-methanocyclopenta[18,19][1,10,3,6]dioxadiazacyclononadecino[11,12-b]quinolin-19-yl 2-methylpropanoate]
Ki [1, 3]: 1.3 nM | Ki [2]: 27 nM

C=C[C@@H]1C[C@]1(NC(=O)[C@@H]1C[C@@H]2CN1C(=O)[C@H](C1CCCC1)NC(=O)O[C@@H]1CCC[C@H]1CC/C=C/Cc1c(nc3ccccc3c1OCCN1CCOC1=O)O2)C(=O)NS(=O)(=O)C1CC1 [Example 42, (3aR,7S,10S,12R,21E,24aS)-7-cyclopentyl-N-{(1R,2S)-1-[(cyclopropylsulfonyl)carbamoyl]-2-ethenylcyclopropyl}-5,8-dioxo-19-[2-(2-oxo-1,3-oxazolidin-3-yl)ethoxy]-1,2,3,3a,5,6,7,8,11,12,20,23,24,24a-tetradecahydro-10H-9,12-methanocyclopenta[18,19][1,10,3,6]dioxadiazacyclononadecino[11,12-b]quinoline-10-carboxamide]
Ki [1, 3]: 0.073 nM | Ki [2]: 1.5 nM
